The values that follow come from PMC5735979, “Total Coumarins from Hydrangea paniculata Show Renal Protective Effects in Lipopolysaccharide-Induced Acute Kidney Injury via Anti-inflammatory and Antioxidant Activities” (Frontiers in Pharmacology, 2017).

Assay type in all cases: in vivo, C57BL/6 mice
Data set [1] in a line: Pharmacokinetics study after single oral dose of HP. The settings on record: for Blood drug concentration: 12 h after single oral dose of 50 mg/kg HP; for Blood drug concentration / concentration at 0.08 h / concentration at 0.25 h / concentration at 0.5 h / concentration at 1 h / concentration at 1.5 h / concentration at 2 h / concentration at 3 h / concentration at 4 h / concentration at 8 h / half-life / AUC(0-inf) / AUC(0-t) / Cmax / Tmax / MRT last / MRT inf: mice, n = 5; for Blood drug concentration / concentration at 0.08 h / concentration at 0.25 h / concentration at 0.5 h / concentration at 1 h / concentration at 1.5 h / concentration at 2 h / concentration at 3 h / concentration at 4 h / concentration at 8 h: mean ± SD; for concentration at 0.08 h / concentration at 0.25 h / concentration at 0.5 h / concentration at 1 h / concentration at 1.5 h / concentration at 2 h / concentration at 3 h / concentration at 4 h / concentration at 8 h / half-life / AUC(0-inf) / AUC(0-t) / Cmax / Tmax / MRT last / MRT inf: male, C57BL/6, mouse, plasma; for concentration at 0.08 h: 0.08 h after single oral dose of 50 mg/kg HP; for concentration at 0.08 h / concentration at 0.25 h / concentration at 0.5 h / concentration at 1 h / concentration at 1.5 h / concentration at 2 h / concentration at 3 h / concentration at 4 h / concentration at 8 h: read-out: Blood drug concentration; for concentration at 0.25 h: 0.25 h after single oral dose of 50 mg/kg HP; for concentration at 0.5 h: 0.5 h after single oral dose of 50 mg/kg HP; for concentration at 1 h: 1 h after single oral dose of 50 mg/kg HP; for concentration at 1.5 h: 1.5 h after single oral dose of 50 mg/kg HP; for concentration at 2 h: 2 h after single oral dose of 50 mg/kg HP; for concentration at 3 h: 3 h after single oral dose of 50 mg/kg HP; for concentration at 4 h: 4 h after single oral dose of 50 mg/kg HP; for concentration at 8 h: 8 h after single oral dose of 50 mg/kg HP; for half-life: elimination half-life; for half-life / AUC(0-inf) / AUC(0-t) / Cmax / Tmax / MRT last / MRT inf: single oral dose of 50 mg/kg HP; for MRT last: read-out: MRT(0−t); for MRT inf: read-out: MRT(0−∞). The method, then: All of the animals were fasted for 12 h before receiving HP and were then allowed to eat for 4 h after administration. The dosing solutions used for the animal studies were prepared by dissolving the required amounts of HP in distilled water. […] The plasma was separated and stored at 2–8°C until analysis. […] Louis, MO, USA) and then mixed with 180 μL of acetonitrile (Merck, Darmstadt, Germany) to precipitate protein. After centrifugation, aliquots (10 μL each) of the supernatant were used for analysis. […] The mobile phase consisted of solvent A [0.1% formic acid (Dikma Technologies, Inc., CA, USA) in water] and solvent B [0.1% formic acid in methanol (Merck)]. The analytes were eluted at a flow rate of 0.2 mL/min, with the following gradient elution: from 0 to 0.6 min, 20% B; linear increase to 95% B in 0.2 min; 95% B for 4 min, decrease to 20% B in 0.2 min; and stabilization at initial conditions for 6 min. The mass spectrometer was set for multiple reaction monitoring and was operated in a positive-ion mode with an electrospray ionization source. Nitrogen was used as the curtain gas and the collision gas. The ion-spray voltage was set at 5,500 V, and the gas temperature at 500°C.

For data set [2], the system named is peripheral blood leukocytes. The data set is described as follows: Peripheral blood leukocyte counts after LPS injection. The settings on record: LPS i.p. injection. The method, then: To understand the effect of HP on peripheral leukocytes in LPS-induced septic mice, peripheral […] was collected in heparin pretreated tubes by retro-orbital bleeding at 4, 8, 12, 24, and 48 h post-LPS injection, and the number of monocytes, lymphocytes, and neutrophils in the […] at different time points was examined by an Automatic Hematology Analyzer (Celltac E MEK-7222, Nihon Kohden, Japan). The detailed experimental procedure is shown in Figure 1C, which is similar to that used to analyze the effect of HP treatment on LPS-induced AKI.

The test system of data set [3] is caspase 3, 7, 8, 9 in kidney tissue. Description: Tubular cell apoptosis and caspases in LPS-challenged kidneys (IHC, RT-qPCR, western blot). As to conditions: MMF 10 mg/kg; magnitude less than HP at 40 mg/kg. The protocol: LPS from Escherichia coli 0111:B4 was purchased from Sigma-Aldrich (St. Louis, MO, USA), and freshly dissolved in sterile 0.9% NaCl solution buffer before i.p. injection. For the standard treatment experiment, low dosage of LPS was used for induction of kidney injury. Inbred, 16–18 g, 4–6-week-old, male C57BL/6 mice were purchased from the SPF Biotechnology Co. Ltd. (Beijing, China). The sham group received 10 mL/kg saline by oral gavagedaily during the experiment, and at day 3 received a saline sham injection (i.p.). The LPS model group was exposed to the same procedure as the sham group, except receiving an LPS (20 mg/kg) injection (i.p.) at day 3, instead of saline. […]
For cleaved caspase 3 immunohistochemical analysis, the endogenous peroxidase activity in each section was quenched with 3% H2O2. […] Labelling was detected with a biotin-conjugated goat anti-rabbit IgG and avidin-biotin peroxidase complex. Cleaved caspase-3-positive cells in cortexes were scored in 30 random × 400 high-power fields (HPFs) with a ZEISS Observer A1 microscope (ZEISS, Germany).
The mRNA levels of selected important chemokines and cytokines in the kidneys, such as TNF-α, IL-1β, IL-6, intercellular adhesion molecule 1 (ICAM-1), vascular cell adhesion molecule 1 (VCAM-1), and MCP-1, as well as caspase family members, such as caspase 3, caspase 7, caspase 8, and caspase 9, were quantified by RT-qPCR. […]
(In general: Quantitative PCR measures a nucleic acid by following its amplification.)

For data set [4], the system named is macrophages and neutrophils in kidneys. The data set is described as follows: Flow cytometric determination of kidney leukocytes. The settings on record: LPS-induced AKI mice, flow cytometry, N = 8. The protocol:
To determine the effect of HP on leukocyte populations in septic kidneys, kidney single-cell suspensions were prepared and analyzed. Briefly, the single-cell suspensions were first incubated with anti-mouse CD45-APC-Cy7 antibody (eBioscience, USA) for 30 min on ice. After washing, the cells were stained for 15 min on ice with fluorochrome-labeled monoclonal antibodies against anti-mouse Ly6G-PE, CD11c-FITC, or F4/80-APC (eBioscience, USA) for detection of neutrophils or macrophages. Six-color fluorescence flow cytometric analyses were performed (FACS Verse, BD, USA), and the data were analyzed with the FlowJo program (Tree Star, Inc., Ashland, CA, USA).
In general terms: A flow cytometer gives signals particle by particle.

Each structure is given as a SMILES string.

In general, half-life refers to how long it takes for the measured level to halve. Read a high half-life as slow decline. The AUC(0-inf) is total exposure, with the tail of the curve extrapolated. Higher therefore signals more exposure. As a reminder, the AUC(0-t) is exposure summed from dosing to a finite time, without extrapolation to infinity. Low readings indicate less exposure, high ones more exposure. As usually defined, the Cmax is the maximum level reached in the sampled fluid or tissue. Usually Tmax stands for the time at which the peak concentration occurs. With `O=c1ccc2cc(O)c(O)cc2o1` [Esculetin, esculetin], in data set [1], the Blood drug concentration result is recorded as “Not detectable”, the concentration at 0.08 h turned out to be 980 ± 800 nM, the concentration at 0.25 h was found to be 2980 ± 1240 nM and the concentration at 0.5 h is 3000 ± 1050 nM. Also, in data set [1], the concentration at 1 h came out at 2240 ± 400 nM, the concentration at 1.5 h was found to be 2250 ± 1590 nM, the concentration at 2 h amounted to 650 ± 220 nM and the concentration at 3 h worked out at 680 ± 880 nM. Moreover, in data set [1], the concentration at 4 h was found to be 300 ± 160 nM, the concentration at 8 h is 120 ± 10 nM, the half-life is 2.3 h and the AUC(0-inf) was determined as 6.66 µM·h. Also, in data set [1], the AUC(0-t) came to 6.27 µM·h, the Cmax amounted to 3000 nM, the Tmax turned out to be 0.5 h and the MRT last came out at 1.82 h. Besides, the MRT inf in data set [1] came to 2.38 h.
For the molecule `COc1c(C)c2c(c(O)c1C/C=C(\C)CCC(=O)OCCN1CCOCC1)C(=O)OC2` [MMF, Mycophenolate mofetil], the “peripheral blood monocytes at 48 h after LPS” value in data set [2] (HP 40 mg/kg, MMF 10 mg/kg, N = 8) is listed as “significantly reduced peripheral blood monocytes”. The “peripheral blood counts within the first 24 h after LPS” value in data set [2] (data not shown) is “did not change the peripheral blood counts”. Besides, in data set [3], the “tubular apoptosis in LPS-induced AKI” value is listed as “ameliorated tubular apoptosis”. In data set [4], the “infiltration of CD45+ F4/80+ CD11c+ macrophages and CD45+Ly6G+ neutrophils into kidneys” value is “produced similar inhibitory results”.
Turning to `O=c1ccc2ccc(O)cc2o1` [Umbelliferone, umbelliferone], in data set [1], the Blood drug concentration entry is given as “Not detectable”, the concentration at 0.08 h is 4210 ± 2210 nM, the concentration at 0.25 h was determined as 9120 ± 3280 nM and the concentration at 0.5 h amounted to 7350 ± 2040 nM. Further, in data set [1], the concentration at 1 h is 3360 ± 760 nM, the concentration at 1.5 h amounted to 2060 ± 790 nM, the concentration at 2 h was 1450 ± 790 nM and the concentration at 3 h turned out to be 1100 ± 1300 nM. Moreover, in data set [1], the concentration at 4 h stood at 590 ± 170 nM, the concentration at 8 h worked out at 140 ± 140 nM, the half-life is 1.69 h and the total exposure AUC(0-inf) stood at 12.2 µM·h. For the same molecule, in data set [1], the AUC(0-t) is 11.8 µM·h, the Cmax was determined as 9120 nM, the Tmax amounted to 0.25 h and the MRT last turned out to be 1.58 h. The MRT inf in data set [1] is 1.82 h.
As for `O=c1ccc2ccc(O[C@@H]3O[C@H](CO[C@@H]4OC[C@](O)(CO)[C@H]4O)[C@@H](O)[C@H](O)[C@H]3O)cc2o1` [apiosylskimmin], the “concentration of plasma apiosylskimmin” value in data set [1] (mouse, in vivo, po, 50 mg/kg) is recorded as “too low to be determined”.
